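In this assay, cells in 96-well plates receive the compound at five concentrations for 48 hours. Endpoints are linearly interpolated between the surrounding concentrations. At the TGI there is no net growth.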
Assays:
Experiment in all cases: NCI tumour cell line growth inhibition, 48 h
[1] = system: HS 578T breast
[2] = system: U251 CNS
[3] = system: PC-3 prostate
[4] = system: LOX IMVI melanoma
[5] = system: SK-MEL-5 melanoma
[6] = system: UO-31 renal
[7] = system: MDA-N
[8] = system: DU-145 prostate
[9] = system: MOLT-4 leukemia
[10] = system: MCF7 breast
[11] = system: SF-295 CNS
[12] = system: HT29 colon
[13] = system: HCT-15 colon
[14] = system: SNB-75 CNS
[15] = system: COLO 205 colon
[16] = system: UACC-257 melanoma
[17] = system: OVCAR-5 ovarian
[18] = system: SK-MEL-28 melanoma
[19] = system: SR leukemia

SMILES | TGI [1] | TGI [2] | TGI [3] | TGI [4] | TGI [5] | TGI [6] | TGI [7] | TGI [8] | TGI [9] | TGI [10] | TGI [11] | TGI [12] | TGI [13] | TGI [14] | TGI [15] | TGI [16] | TGI [17] | TGI [18] | TGI [19]
NNc1ccccc1Cl | > 100 µM | > 100 µM | > 100 µM | > 100 µM | > 100 µM | > 100 µM | > 100 µM | > 100 µM | > 100 µM | > 100 µM | > 100 µM | > 100 µM | > 100 µM | > 100 µM | > 100 µM | > 100 µM | > 100 µM | > 100 µM | 
COc1ccc(OC)c(-c2nc3ccccc3c(=O)[nH]2)c1 | > 100 µM | > 100 µM | > 100 µM |  | > 100 µM | > 100 µM | > 100 µM | > 100 µM | > 100 µM | > 100 µM | > 100 µM | > 100 µM | > 100 µM | > 100 µM | > 100 µM | > 100 µM | > 100 µM |  | > 100 µM
O=C(/C=C\c1ccccc1)Oc1ccc(/C=C2\CCCCC2=O)cc1 | > 100 µM | > 100 µM | > 100 µM | > 100 µM | > 100 µM | > 100 µM | > 100 µM | > 100 µM | 16.5 µM | > 100 µM | > 100 µM | 31.7 µM | 79.7 µM | > 100 µM | 62.9 µM | 87.3 µM | > 100 µM | > 100 µM | 
CC(=O)c1nc2ccccc2n1CC(=O)c1ccc(Cl)cc1 | > 100 µM | > 100 µM | 60.1 µM | 12.6 µM |  | > 100 µM | > 100 µM | > 100 µM | > 100 µM | > 100 µM | 43.7 µM | 35.4 µM | > 100 µM |  | 53 µM | > 100 µM |  | > 100 µM | > 100 µM
NC1CC(=O)c2csc(Cl)c21 (configuration not stated) | > 100 µM | 22.9 µM | 23.9 µM | 24.1 µM | 35.3 µM | 12.7 µM | 22 µM | 20.9 µM | 3.87 µM | > 100 µM | 32 µM | 29.2 µM | 14.2 µM | 31.8 µM | 12.1 µM | 29 µM | 37.1 µM | 46.3 µM | 
O=C1c2cscc2C(=O)C1(O)O | > 100 µM | > 100 µM | > 100 µM | > 100 µM | > 100 µM | 49.1 µM | > 100 µM | > 100 µM | 57.8 µM | > 100 µM | > 100 µM | > 100 µM | > 100 µM |  | 36.7 µM | 65.1 µM | > 100 µM | > 100 µM | 49.3 µM
CCN1C(=O)c2ccccc2C1(O)c1ccc(Cl)cc1 (configuration not stated) | > 100 µM | > 100 µM | 80.6 µM | > 100 µM | > 100 µM | > 100 µM | > 100 µM | > 100 µM | > 100 µM | > 100 µM | 63.2 µM | > 100 µM | > 100 µM |  | > 100 µM | > 100 µM | > 100 µM | > 100 µM | > 100 µM
Cc1ccc(C(CC(=O)C(C)(C)CN2CCCCC2)SCCS(=O)(=O)O)cc1 (configuration not stated) | 68.9 µM | 81.8 µM | > 100 µM |  | 46.5 µM | 65.3 µM | > 100 µM | > 100 µM | 48.7 µM | 83.8 µM | 73.4 µM | 72.8 µM | 72 µM | 96.4 µM | 35.3 µM |  | > 100 µM |  | 45.3 µM
CC(C)=C[C@@H]1C[C@H](C)c2c(O)cc(C)c3c2C1=C(C)C(=O)C3=O | 41.8 µM | 26.7 µM | 23.6 µM | 33.3 µM | 26.5 µM |  | 33.7 µM | 28.6 µM | > 100 µM | 65.8 µM | 30.4 µM | 40.6 µM | 29.4 µM | 31.4 µM | 32.6 µM | 37.5 µM | 62.2 µM | 29.8 µM | 
CC[C@H](C)C1=C(O)[N@+]2([O-])Oc3ccc(-c4c(O)c(O)c(-c5ccc(OC(C)=O)cc5)c(OC(C)=O)c4OC(C)=O)cc3O[C@]2([C@@H](C)CC)C(=O)N1O | > 50 µM | > 50 µM | > 50 µM | > 50 µM | > 50 µM | > 50 µM | > 50 µM | > 50 µM | 35 µM | > 50 µM | > 50 µM | > 50 µM | > 50 µM |  | > 50 µM | > 50 µM | > 50 µM | > 50 µM | 33 µM
CN(C)CCNC(=O)Cn1ccc(=O)c2ccc([N+](=O)[O-])cc21 | > 100 µM | > 100 µM | > 100 µM | > 100 µM | > 100 µM | > 100 µM | > 100 µM | > 100 µM | > 100 µM | > 100 µM | > 100 µM | > 100 µM | > 100 µM |  | > 100 µM | > 100 µM | > 100 µM | > 100 µM | > 100 µM

Source: PubChem BioAssay (NCI)
